The results in this text go back to patent US12371428B2 (Exelixis, Inc., priority 2019, dated 2025).

The term IC50 denotes the concentration needed to halve the response being measured.

In assay [1] the target is Met (phospho-Met, HGF-stimulated PC-3 prostate cancer cells) (Homo sapiens (Human), UniProt P08581). The assay is described as follows: Met autophosphorylation ELISA in PC-3 cells (Example F). Format: cell-based. As to conditions: cellular activity; Met autophosphorylation ELISA in PC-3 cells; read-out: c-Met IC50. An outline of the steps: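 PC-3 cells, serum-starved 3 h, were treated with compounds (8-point dose curve, 0.3% DMSO final) for 1 h, then stimulated with 100 ng/mL recombinant human HGF for 10 min. Lysate phospho-Met (panTyr) was quantified by sandwich ELISA; IC50 from 4-parameter logistic fit.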
Background: In an ELISA, binding on a coated surface is turned into a signal by an enzyme label.

Assay [2] concerns the target KDR (phospho-KDR, VEGF165-stimulated HUVEC cells) (Homo sapiens (Human), UniProt P35968). Description: KDR autophosphorylation ELISA in HUVEC cells (Example G). Format: cell-based. To be noted: cellular activity; KDR autophosphorylation ELISA in HUVEC cells. The gist of the method: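 HUVECs were serum-starved 24 h, given compound as an 8-point dilution series (0.3% DMSO final) for 1 h, then stimulated with 100 ng/mL VEGF165 for 5 min. Lysate phospho-KDR was quantified by sandwich ELISA against a phospho-KDR standard, and IC50s came from a 4-parameter logistic fit.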

Where a name gives a salt, the structure may show the parent alone.

Sequence of Met (phospho-Met, HGF-stimulated PC-3 prostate cancer cells) (P08581 25-1390): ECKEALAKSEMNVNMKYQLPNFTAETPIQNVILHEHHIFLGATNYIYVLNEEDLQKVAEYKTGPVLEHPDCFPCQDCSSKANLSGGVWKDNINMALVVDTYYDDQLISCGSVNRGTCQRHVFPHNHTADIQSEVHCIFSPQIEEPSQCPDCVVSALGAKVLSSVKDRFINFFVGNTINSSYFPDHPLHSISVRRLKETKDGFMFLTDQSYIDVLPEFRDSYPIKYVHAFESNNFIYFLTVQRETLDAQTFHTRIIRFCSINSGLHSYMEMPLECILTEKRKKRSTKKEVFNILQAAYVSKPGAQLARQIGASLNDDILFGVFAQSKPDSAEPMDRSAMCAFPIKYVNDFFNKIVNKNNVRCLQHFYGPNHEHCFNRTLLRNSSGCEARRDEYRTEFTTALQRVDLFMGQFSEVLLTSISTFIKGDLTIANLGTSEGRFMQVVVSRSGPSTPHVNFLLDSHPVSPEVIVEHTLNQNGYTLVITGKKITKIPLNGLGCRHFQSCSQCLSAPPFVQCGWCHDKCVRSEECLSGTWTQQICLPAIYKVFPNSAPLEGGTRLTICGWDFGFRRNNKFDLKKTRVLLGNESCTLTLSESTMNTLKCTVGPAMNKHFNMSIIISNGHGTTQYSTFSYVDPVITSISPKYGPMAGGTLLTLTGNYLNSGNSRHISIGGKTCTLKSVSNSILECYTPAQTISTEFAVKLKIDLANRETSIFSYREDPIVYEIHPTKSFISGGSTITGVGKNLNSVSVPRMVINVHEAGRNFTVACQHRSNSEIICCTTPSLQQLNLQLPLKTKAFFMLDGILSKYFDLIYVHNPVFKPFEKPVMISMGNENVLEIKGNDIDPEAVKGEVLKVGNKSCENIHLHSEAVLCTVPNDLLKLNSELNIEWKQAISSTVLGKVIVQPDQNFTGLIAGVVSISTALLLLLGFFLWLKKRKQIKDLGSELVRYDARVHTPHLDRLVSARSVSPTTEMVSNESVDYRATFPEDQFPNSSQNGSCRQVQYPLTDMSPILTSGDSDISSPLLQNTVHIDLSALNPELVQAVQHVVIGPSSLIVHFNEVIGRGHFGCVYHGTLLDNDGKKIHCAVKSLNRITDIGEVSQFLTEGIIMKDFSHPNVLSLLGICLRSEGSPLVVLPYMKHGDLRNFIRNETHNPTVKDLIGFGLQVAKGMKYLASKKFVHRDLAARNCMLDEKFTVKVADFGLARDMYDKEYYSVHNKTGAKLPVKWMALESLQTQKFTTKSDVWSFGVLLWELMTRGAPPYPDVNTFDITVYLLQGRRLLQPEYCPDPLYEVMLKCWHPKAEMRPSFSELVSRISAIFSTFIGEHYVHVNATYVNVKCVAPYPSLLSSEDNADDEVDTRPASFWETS
Sequence of KDR (phospho-KDR, VEGF165-stimulated HUVEC cells) (P35968 20-1356): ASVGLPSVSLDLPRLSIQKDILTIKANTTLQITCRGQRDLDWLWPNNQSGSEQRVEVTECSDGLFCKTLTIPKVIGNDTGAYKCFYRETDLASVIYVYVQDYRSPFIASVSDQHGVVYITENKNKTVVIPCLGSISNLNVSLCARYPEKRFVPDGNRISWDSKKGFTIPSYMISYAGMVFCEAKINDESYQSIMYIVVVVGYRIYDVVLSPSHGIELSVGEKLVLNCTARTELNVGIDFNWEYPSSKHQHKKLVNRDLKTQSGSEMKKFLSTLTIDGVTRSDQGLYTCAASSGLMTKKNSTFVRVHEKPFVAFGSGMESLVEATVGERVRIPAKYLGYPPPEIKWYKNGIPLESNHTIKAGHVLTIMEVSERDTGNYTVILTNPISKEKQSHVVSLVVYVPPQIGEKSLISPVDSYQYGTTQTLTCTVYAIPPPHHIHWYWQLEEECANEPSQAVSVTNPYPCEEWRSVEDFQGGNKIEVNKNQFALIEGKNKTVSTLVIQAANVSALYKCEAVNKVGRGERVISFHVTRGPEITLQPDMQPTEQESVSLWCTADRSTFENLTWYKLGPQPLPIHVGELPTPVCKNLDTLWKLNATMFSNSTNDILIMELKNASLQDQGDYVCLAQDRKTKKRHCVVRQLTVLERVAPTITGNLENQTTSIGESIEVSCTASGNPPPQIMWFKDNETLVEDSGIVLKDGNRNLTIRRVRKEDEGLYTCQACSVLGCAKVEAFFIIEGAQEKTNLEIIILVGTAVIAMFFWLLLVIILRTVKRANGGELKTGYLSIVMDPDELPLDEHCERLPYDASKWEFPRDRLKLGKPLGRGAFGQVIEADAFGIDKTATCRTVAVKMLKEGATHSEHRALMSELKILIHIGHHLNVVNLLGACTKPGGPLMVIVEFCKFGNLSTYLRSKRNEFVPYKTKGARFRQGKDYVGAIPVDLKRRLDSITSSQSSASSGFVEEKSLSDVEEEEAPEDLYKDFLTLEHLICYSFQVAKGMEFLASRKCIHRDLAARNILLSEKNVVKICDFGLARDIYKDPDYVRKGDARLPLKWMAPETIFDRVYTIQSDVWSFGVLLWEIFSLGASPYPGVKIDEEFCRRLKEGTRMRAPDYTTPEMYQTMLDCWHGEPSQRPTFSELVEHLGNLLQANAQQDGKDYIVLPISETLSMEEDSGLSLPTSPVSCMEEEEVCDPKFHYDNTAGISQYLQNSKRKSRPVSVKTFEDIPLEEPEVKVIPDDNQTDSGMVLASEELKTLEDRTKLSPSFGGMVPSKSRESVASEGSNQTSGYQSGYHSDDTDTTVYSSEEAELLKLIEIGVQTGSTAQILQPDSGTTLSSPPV

In the case of `Cc1ncc(C(=O)Nc2ccc(Oc3ccnc4cc(C(C)C)cnc34)c(F)c2)c(O)c1-c1ccc(F)cc1` [Compound 596, 5-(4-Fluorophenyl)-N-[3-fluoro-4-[(7-propan-2-yl-1,5-naphthyridin-4-yl)oxy]phenyl]-4-hydroxy-6-methylpyridine-3-carboxamide], the IC50 in assay [1] and in assay [2] was < 100 nM in each case.
For `Cc1nc(C)c(-c2ccc(F)cc2)c(O)c1C(=O)Nc1ccc(Oc2ccnc3cc(C(C)C)cnc23)cc1` [Compound 598, 5-(4-Fluorophenyl)-4-hydroxy-2,6-dimethyl-N-[4-[(7-propan-2-yl-1,5-naphthyridin-4-yl)oxy]phenyl]pyridine-3-carboxamide], the 50% inhibitory concentration (IC50) in assay [1] and in assay [2] was < 100 nM throughout.
For the molecule `Cc1ncc(C(=O)Nc2ccc(Oc3ccnc4cc(-c5cnn(C(F)F)c5)cnc34)c(F)c2)c(O)c1-c1ccc(F)cc1` [Compound 610, N-[4-[[7-[1-(Difluoromethyl)pyrazol-4-yl]-1,5-naphthyridin-4-yl]oxy]-3-fluorophenyl]-5-(4-fluorophenyl)-4-hydroxy-6-methylpyridine-3-carboxamide hydrochloride], the IC50 in assay [1] and in assay [2] was < 100 nM each time.
Turning to `Cc1ncc(C(=O)Nc2ccc(Oc3ccnc4cc(-c5cnn(C(F)F)c5)cnc34)cc2)c(O)c1-c1ccc(F)cc1` [Compound 611, N-[4-[[7-[1-(Difluoromethyl)pyrazol-4-yl]-1,5-naphthyridin-4-yl]oxy]phenyl]-5-(4-fluorophenyl)-4-hydroxy-6-methylpyridine-3-carboxamide], the IC50 in assay [1] and in assay [2] was < 100 nM throughout.
For `Cc1nc2c(Oc3ccc(NC(=O)c4cn(C(C)C)c(C)c(-c5ccc(F)cc5)c4=O)cc3)ccnc2cc1-c1cnn(C(F)F)c1` [Compound 612, N-[4-[[7-[1-(Difluoromethyl)pyrazol-4-yl]-6-methyl-1,5-naphthyridin-4-yl]oxy]phenyl]-5-(4-fluorophenyl)-6-methyl-4-oxo-1-propan-2-ylpyridine-3-carboxamide hydrochloride], the 50% inhibitory concentration (IC50) is 100 to 300 nM in assay [1] and > 300 nM in assay [2].
As for `Cc1nc2c(Oc3ccc(NC(=O)c4cn(C(C)C)c(C)c(-c5ccc(F)cc5)c4=O)cc3)ccnc2cc1-c1cccnc1` [Compound 613, 5-(4-Fluorophenyl)-6-methyl-N-[4-[(6-methyl-7-pyridin-3-yl-1,5-naphthyridin-4-yl)oxy]phenyl]-4-oxo-1-propan-2-ylpyridine-3-carboxamide hydrochloride], the IC50 in assay [1] was < 100 nM; in assay [2], > 300 nM.
With `Cc1nc2c(Oc3ccc(NC(=O)c4cn(C(C)C)c(C)c(-c5ccc(F)cc5)c4=O)cc3F)ccnc2cc1-c1cnn(C(F)F)c1` [Compound 614, N-[4-[[7-[1-(Difluoromethyl)pyrazol-4-yl]-6-methyl-1,5-naphthyridin-4-yl]oxy]-3-fluorophenyl]-5-(4-fluorophenyl)-6-methyl-4-oxo-1-propan-2-ylpyridine-3-carboxamide hydrochloride], the IC50 in assay [1] is 100 to 300 nM; in assay [2], > 300 nM.
For `Cc1nc2c(Oc3ccc(NC(=O)c4cnc(C)c(-c5ccc(F)cc5)c4O)cc3F)ccnc2cc1-c1cnn(C(F)F)c1` [Compound 615, N-[4-[[7-[1-(Difluoromethyl)pyrazol-4-yl]-6-methyl-1,5-naphthyridin-4-yl]oxy]-3-fluorophenyl]-5-(4-fluorophenyl)-4-hydroxy-6-methylpyridine-3-carboxamide hydrochloride], in that order: < 100 nM and < 100 nM.
On to `Cc1nc2c(Oc3ccc(NC(=O)c4cnc(C)c(-c5ccc(F)cc5)c4O)cc3)ccnc2cc1-c1cccnc1` [Compound 616, 5-(4-Fluorophenyl)-4-hydroxy-6-methyl-N-[4-[(6-methyl-7-pyridin-3-yl-1,5-naphthyridin-4-yl)oxy]phenyl]pyridine-3-carboxamide hydrochloride], for which the results for the concentration for half-maximal inhibition (IC50) in assay [1] and in assay [2] were > 300 nM and < 100 nM, respectively.
As to `Cc1nc2c(Oc3ccc(NC(=O)c4cnc(C)c(-c5ccc(F)cc5)c4O)cc3)ccnc2cc1-c1cnn(C(F)F)c1` [Compound 617, N-[4-[[7-[1-(Difluoromethyl)pyrazol-4-yl]-6-methyl-1,5-naphthyridin-4-yl]oxy]phenyl]-5-(4-fluorophenyl)-4-hydroxy-6-methylpyridine-3-carboxamide hydrochloride], the concentration for half-maximal inhibition (IC50) in assay [1] and in assay [2] was < 100 nM each time.
Regarding `Cc1nc2c(Oc3ccc(NC(=O)c4cnc(C)c(-c5ccc(F)cc5)c4O)cc3F)ccnc2cc1-c1cccnc1` [Compound 618, N-[3-Fluoro-4-[(6-methyl-7-pyridin-3-yl-1,5-naphthyridin-4-yl)oxy]phenyl]-5-(4-fluorophenyl)-4-hydroxy-6-methylpyridine-3-carboxamide hydrochloride], the IC50 in assay [1] was 100 to 300 nM; in assay [2], < 100 nM.
For the molecule `COc1cc2nccc(Oc3ccc(NC(=O)c4cn(CCO)c(C)c(-c5ccc(F)cc5)c4=O)cc3F)c2nc1OC` [Compound 619, N-[4-[(6,7-Dimethoxy-1,5-naphthyridin-4-yl)oxy]-3-fluorophenyl]-5-(4-fluorophenyl)-1-(2-hydroxyethyl)-6-methyl-4-oxopyridine-3-carboxamide], the 50% inhibitory concentration (IC50) in assay [1] and in assay [2] was < 100 nM in each case.
`Cc1nc2c(Oc3ccc(NC(=O)c4cn(C(C)C)c(C)c(-c5ccc(F)cc5)c4=O)cc3F)ccnc2cc1-c1cccnc1` [Compound 620, N-[3-Fluoro-4-[(6-methyl-7-pyridin-3-yl-1,5-naphthyridin-4-yl)oxy]phenyl]-5-(4-fluorophenyl)-6-methyl-4-oxo-1-propan-2-ylpyridine-3-carboxamide]: the IC50 in assay [1] was 100 to 300 nM; in assay [2] it was > 300 nM.
Consider `COc1cc2ncnc(Oc3ccc(NC(=O)c4cn(C(C)C)cc(-c5ccc(F)cc5)c4=O)cc3F)c2nc1OC` [Compound 636, N-[4-(6,7-dimethoxypyrido[3,2-d]pyrimidin-4-yl)oxy-3-fluorophenyl]-5-(4-fluorophenyl)-4-oxo-1-propan-2-ylpyridine-3-carboxamide], for which the IC50 is < 100 nM in assay [1] and > 300 nM in assay [2].
Regarding `COc1cc2ncnc(Oc3ccc(NC(=O)c4cn(-c5cnn(C)c5)cc(-c5ccc(F)cc5)c4=O)cc3F)c2nc1OC` [Compound 637, N-[4-(6,7-dimethoxyprido[3,2-d]pyrimidin-4-yl)oxy-3-fluorophenyl]-5-(4-fluorophenyl)-1-(1-methylpyrazol-4-yl)-4-oxopyridine-3-carboxamide], the half-maximal inhibitory concentration (IC50) in assay [1] is < 100 nM; in assay [2], > 300 nM.
As for `COc1cc2c(Oc3ccc(NC(=O)c4cnc(C)c(-c5ccc(F)cc5)c4O)cc3F)ccnc2cn1` [Compound 639, N-[3-fluoro-4-[(6-methoxy-1,7-naphthyridin-4-yl)oxy]phenyl]-5-(4-fluorophenyl)-4-hydroxy-6-methylpyridine-3-carboxamide], the half-inhibitory concentration (IC50) in assay [1] and in assay [2] was < 100 nM in each case.
Take `COc1cc2c(Oc3ccc(NC(=O)c4cn(C5CC5)c(C)c(-c5ccc(F)cc5)c4=O)cc3F)ccnc2cn1` [Compound 640, 1-cyclopropyl-N-[3-fluoro-4-[(6-methoxy-1,7-naphthyridin-4-yl)oxy]phenyl]-5-(4-fluorophenyl)-6-methyl-4-oxopyridine-3-carboxamide]: the IC50 was < 100 nM in assay [1] and > 300 nM in assay [2].
